# Data published in publication PMC3056319 (Journal of medicinal chemistry, 2011).
# Read-outs that look alike come from different tables or passages of the source.
# Tests used:
# [1] = tested on: P. falciparum Indochina W2 clone; assay: microbe, parasite or virus in culture; assay type: cell-based
# [2] = tested on: P. falciparum multidrug resistant C235 strain (Thailand); assay: microbe, parasite or virus in culture; assay type: cell-based
# [3] = tested on: RAW 264.7 (rat macrophage) cell line; assay type: cell-based
# [4] = tested on: P. berghei (ANKA strain) sporozoites; parameters: species or system ICR mice (Mus musculus); conditions: mouse, in vivo
# [5] = tested on: Recombinant Zaire Ebola virus (EBOV-eGFP); assay: microbe, parasite or virus in culture; assay type: cell-based; conditions: read-out: EBOV inhibition IC50
# P. berghei (P Line) = conditions: mouse
# Vero76 cells = conditions: African green monkey
# recombinant BoNT/A LC [6] = biological target: T1, recombinant BoNT/A LC (Clostridium botulinum, UniProt P0DPI0); assay type: biochemical, Closteridium botulinum
# T1 sequence (P0DPI0 2-448 limits assumed): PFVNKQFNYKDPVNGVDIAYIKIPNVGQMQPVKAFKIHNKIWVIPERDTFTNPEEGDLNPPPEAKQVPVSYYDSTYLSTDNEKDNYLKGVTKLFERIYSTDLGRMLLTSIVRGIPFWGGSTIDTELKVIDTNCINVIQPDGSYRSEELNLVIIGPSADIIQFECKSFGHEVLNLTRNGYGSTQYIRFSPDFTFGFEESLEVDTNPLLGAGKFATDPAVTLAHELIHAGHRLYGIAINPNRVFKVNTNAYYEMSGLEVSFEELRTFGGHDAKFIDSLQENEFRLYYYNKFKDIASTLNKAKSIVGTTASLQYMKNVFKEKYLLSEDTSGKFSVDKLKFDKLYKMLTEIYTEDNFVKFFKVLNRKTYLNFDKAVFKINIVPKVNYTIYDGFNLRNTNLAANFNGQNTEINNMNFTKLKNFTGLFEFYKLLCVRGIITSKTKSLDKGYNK
# [7] = tested on: P. falciparum African D6 clone; assay: microbe, parasite or virus in culture; assay type: cell-based; conditions: Plasmodium falciparum, D6, read-out: Antimalarial activity IC50, D6
# recombinant BoNT/A LC [8] = biological target: T1, recombinant BoNT/A LC; conditions: cited from earlier work
# EBOV = conditions: cited from earlier work
Structure (SMILES),Resistance index (RI) W2/D6 [1],Selectivity index (IC50) D6 [3],Selectivity index (IC50) W2 [3],Selectivity index (IC90) C235 [3],Selectivity index (IC90) D6 [3],Selectivity index (IC90) W2 [3],Toxicity at 20 µM (Vero76 cells),cell toxicities in dose-response studies (Vero76 cells),further results
"CCN(CC)CCNc1cc(C)nc2c1ccc1c2ccc2c(NCCN(CC)CC)cc(C)nc21.Cl [Compound 11, N,N'-bis[2-(diethylamino)ethyl]-3,9-dimethylquino[8,7-h]quinoline-1,7-diamine tetrahydrochloride]",0.57/0.55,1555.41; 1189.46,2686.21; 1058.99,281.66; 2827.70,1555.41; 1189.46,2686.21; 1058.99,<20%,< 25%,"Resistance index (RI) C235/D6 [2]: 0.57/0.55; delay of parasite patency relative to control mice [4]: 1 to 2 days; delayed patency [4]: 1 days; causal prophylactic protection ([4]; po): does not provide prophylactic protection; IC50 [5]: 5000 to 10000 nM; toxicity in vivo (P. berghei (P Line); ICR, po): >60; >60; no toxicity in vivo; in vivo clinical toxicity (P. berghei (P Line)): No evidence of in vivo clinical toxicity; day of succumbing to infection (post-parasite inoculation), non-cured mice (P. berghei (P Line); in vivo): 13 to 21 days; mice cured (negative blood smear on day 31 post-infection) (P. berghei (P Line); in vivo): cured one mouse out of five tested"
"Cc1cc(NCCCN)c2ccc3c(ccc4c(NCCCN)cc(C)nc43)c2n1.Cl [Compound 7, N,N'-bis(3-aminopropyl)-3,9-dimethylquino[8,7-h]quinoline-1,7-diamine tetrahydrochloride]",–,–,–,–,–,–,–,–,type of inhibition kinetics (recombinant BoNT/A LC [6]): competitive inhibitors
"Cc1cc(NCCN)c2ccc3c(ccc4c(NCCN)cc(C)nc43)c2n1.Cl [Compound 8, N,N'-bis(2-aminoethyl)-3,9-dimethylquino[8,7-h]quinoline-1,7-diamine tetrahydrochloride]",–,–,–,–,–,–,–,–,type of inhibition kinetics (recombinant BoNT/A LC [6]): competitive inhibitors
"CCN(CC)CCCC(C)Nc1ccnc2cc(Cl)ccc12 (stereo not drawn) [CQ, chloroquine, reference compound]",–,–,–,–,–,–,–,–,"IC50 [7]: 12.3 nM; IC50 ([1]; Plasmodium falciparum, W2, read-out: Antimalarial activity IC50, W2): 456 nM; IC50 ([2]; Plasmodium falciparum, read-out: Antimalarial activity IC50, C235): 139 nM; BoNT/A LC inhibition (recombinant BoNT/A LC [8]): weakly inhibit the BoNT/A LC"
"Cc1cc(NCCCN2CCCCC2)c2ccc3c(ccc4c(NCCCN5CCCCC5)cc(C)nc43)c2n1.Cl [Compound 14, 3,9-dimethyl-N,N'-bis(3-piperidin-1-ylpropyl)quino[8,7-h]quinoline-1,7-diamine tetrahydrochloride]",–,–,–,–,–,–,<20%,< 25%,–
"Cc1cc(NCCN2CCOCC2)c2ccc3c(ccc4c(NCCN5CCOCC5)cc(C)nc43)c2n1.Cl [Compound 17, 3,9-dimethyl-N,N'-bis(2-morpholin-4-ylethyl)quino[8,7-h]quinoline-1,7-diamine tetrahydrochloride]",1.03/1.66,1715.68; 2374.36,1662.42; 2601.48,1033.94; 1815.35,1715.68; 2374.36,1662.42; 2601.48,–,–,Resistance index (RI) C235/D6 [2]: 1.03/1.66; Selectivity index (IC50) C235 [3]: 1033.94; 1815.35
"Cc1cc(NCCCN(C)C)c2ccc3c(ccc4c(NCCCN(C)C)cc(C)nc43)c2n1.Cl [Compound 9, N,N'-bis[3-(dimethylamino)propyl]-3,9-dimethylquino[8,7-h]quinoline-1,7-diamine tetrahydrochloride]",–,–,–,–,–,–,–,–,anti-EBOV efficacy in vivo (EBOV): possesses anti-EBOV efficacy in vivo with no toxicity
"Cc1cc(NCCCN2CCOCC2)c2ccc3c(ccc4c(NCCCN5CCOCC5)cc(C)nc43)c2n1.Cl [Compound 16, 3,9-dimethyl-N,N'-bis(3-morpholin-4-ylpropyl)quino[8,7-h]quinoline-1,7-diamine tetrahydrochloride]",0.38/1.54,1430.40; 1302.12,3740.50; 1728.68,929.32; 635.31,1430.40; 1302.12,3740.50; 1728.68,<20%,< 25%,"Selectivity index (IC50) C235 [3]: 929.32; 635.31; IC50 ([5]; Zaire ebolavirus, Vero 76, 48 h): ~5000 nM; IC50 [5]: 2500 to 5000 nM"
